From the supplement of paper PMC12463676, “Small-molecule dissolution of stress granules by redox modulation benefits ALS models” (Nature Chemical Biology, 2025)

Legend:
lipoamide = compound: NC(=O)CCCCC1CCSS1 [lipoamide]; assay: thermal stability z-score vs DMSO; higher = more thermally stabilized by treatment; details: HeLa, lipoamide concentration 100 µM
Experimental: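 Cellular thermal proteome profiling in HeLa cells. Cells were treated with 100 µM lipoamide for 1 h, with or without 1 mM arsenate for a further 1 h, then heated to ten temperatures (37-66.3 °C), and soluble protein was quantified by TMT mass spectrometry relative to 0.1% DMSO controls. The thermal stability score (sum of log2 fold changes minus the abundance score) was transformed to a z-score; mean of n = 3 experiments.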

potassium arsenate = compound: O=[As]([O-])(O)O.[K+] [potassium arsenate]; assay: as above; details: HeLa; arsenate concentration 1 mM
Experimental: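 Cellular thermal proteome profiling in HeLa cells treated with 1 mM arsenate for 1 h (DMSO pretreatment), heated to ten temperatures (37-66.3 °C). Soluble protein was quantified by TMT mass spectrometry relative to DMSO controls; the thermal stability score was transformed to a z-score; mean of n = 3 experiments.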

[1] = arsenate co-treatment: 1 mM arsenate 1 h
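Also: each temperature applied for 3 min, abundance score taken as mean log2 fold change at the two lowest temperatures, z-score obtained by mean subtraction and division by SD.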

Chain of UniProt O60610 (O60610 whole entry): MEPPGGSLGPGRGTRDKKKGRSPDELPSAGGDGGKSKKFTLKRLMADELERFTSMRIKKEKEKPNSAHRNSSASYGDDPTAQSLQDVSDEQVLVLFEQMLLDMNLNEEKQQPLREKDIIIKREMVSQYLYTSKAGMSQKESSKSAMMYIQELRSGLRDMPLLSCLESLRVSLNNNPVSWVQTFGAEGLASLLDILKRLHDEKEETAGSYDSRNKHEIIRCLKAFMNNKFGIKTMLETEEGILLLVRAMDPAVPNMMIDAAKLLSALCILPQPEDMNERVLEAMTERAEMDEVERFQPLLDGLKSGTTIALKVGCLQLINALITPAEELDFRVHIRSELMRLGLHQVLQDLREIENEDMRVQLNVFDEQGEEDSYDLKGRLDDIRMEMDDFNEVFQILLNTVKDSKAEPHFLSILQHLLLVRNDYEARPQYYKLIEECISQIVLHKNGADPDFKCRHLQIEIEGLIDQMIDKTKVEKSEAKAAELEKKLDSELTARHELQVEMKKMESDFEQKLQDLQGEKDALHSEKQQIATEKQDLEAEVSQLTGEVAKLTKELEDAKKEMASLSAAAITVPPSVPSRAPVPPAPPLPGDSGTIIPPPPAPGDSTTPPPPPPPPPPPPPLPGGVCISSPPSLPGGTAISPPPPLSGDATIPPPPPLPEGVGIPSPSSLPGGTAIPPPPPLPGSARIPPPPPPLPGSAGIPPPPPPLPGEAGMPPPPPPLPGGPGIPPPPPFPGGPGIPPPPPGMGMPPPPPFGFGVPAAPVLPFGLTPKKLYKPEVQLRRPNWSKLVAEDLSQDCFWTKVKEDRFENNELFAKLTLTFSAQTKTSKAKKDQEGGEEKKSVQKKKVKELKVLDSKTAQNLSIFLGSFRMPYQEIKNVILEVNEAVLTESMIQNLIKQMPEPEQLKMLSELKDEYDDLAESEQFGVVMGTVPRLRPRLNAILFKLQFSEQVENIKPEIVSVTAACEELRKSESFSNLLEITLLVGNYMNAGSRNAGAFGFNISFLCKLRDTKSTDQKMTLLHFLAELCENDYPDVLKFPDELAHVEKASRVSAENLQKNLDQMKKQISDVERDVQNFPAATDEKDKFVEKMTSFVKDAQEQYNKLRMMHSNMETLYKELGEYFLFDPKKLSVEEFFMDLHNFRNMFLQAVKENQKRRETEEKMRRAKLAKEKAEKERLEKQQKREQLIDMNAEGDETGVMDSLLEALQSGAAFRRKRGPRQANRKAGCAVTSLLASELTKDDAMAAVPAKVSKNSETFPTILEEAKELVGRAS
Chain of UniProt Q9NR28 (Q9NR28 whole entry): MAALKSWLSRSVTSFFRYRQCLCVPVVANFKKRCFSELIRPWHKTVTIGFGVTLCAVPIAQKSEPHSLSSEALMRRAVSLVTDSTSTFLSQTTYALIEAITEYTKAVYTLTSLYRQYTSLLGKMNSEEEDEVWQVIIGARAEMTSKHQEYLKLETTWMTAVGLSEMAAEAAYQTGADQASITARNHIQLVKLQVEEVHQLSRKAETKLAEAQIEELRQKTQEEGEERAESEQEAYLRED
Chain of UniProt Q6UX07 (Q6UX07 whole entry): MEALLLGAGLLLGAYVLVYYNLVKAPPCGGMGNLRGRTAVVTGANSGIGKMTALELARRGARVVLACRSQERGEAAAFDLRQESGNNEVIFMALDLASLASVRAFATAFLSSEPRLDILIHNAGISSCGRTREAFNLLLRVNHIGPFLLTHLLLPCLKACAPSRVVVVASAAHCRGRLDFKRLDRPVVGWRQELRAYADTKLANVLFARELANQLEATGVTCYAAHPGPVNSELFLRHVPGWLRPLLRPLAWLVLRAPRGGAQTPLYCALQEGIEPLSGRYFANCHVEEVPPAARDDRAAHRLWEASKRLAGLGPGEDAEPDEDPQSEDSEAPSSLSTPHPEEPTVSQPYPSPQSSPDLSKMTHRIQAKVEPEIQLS
Chain of UniProt Q8IY37 (Q8IY37 whole entry): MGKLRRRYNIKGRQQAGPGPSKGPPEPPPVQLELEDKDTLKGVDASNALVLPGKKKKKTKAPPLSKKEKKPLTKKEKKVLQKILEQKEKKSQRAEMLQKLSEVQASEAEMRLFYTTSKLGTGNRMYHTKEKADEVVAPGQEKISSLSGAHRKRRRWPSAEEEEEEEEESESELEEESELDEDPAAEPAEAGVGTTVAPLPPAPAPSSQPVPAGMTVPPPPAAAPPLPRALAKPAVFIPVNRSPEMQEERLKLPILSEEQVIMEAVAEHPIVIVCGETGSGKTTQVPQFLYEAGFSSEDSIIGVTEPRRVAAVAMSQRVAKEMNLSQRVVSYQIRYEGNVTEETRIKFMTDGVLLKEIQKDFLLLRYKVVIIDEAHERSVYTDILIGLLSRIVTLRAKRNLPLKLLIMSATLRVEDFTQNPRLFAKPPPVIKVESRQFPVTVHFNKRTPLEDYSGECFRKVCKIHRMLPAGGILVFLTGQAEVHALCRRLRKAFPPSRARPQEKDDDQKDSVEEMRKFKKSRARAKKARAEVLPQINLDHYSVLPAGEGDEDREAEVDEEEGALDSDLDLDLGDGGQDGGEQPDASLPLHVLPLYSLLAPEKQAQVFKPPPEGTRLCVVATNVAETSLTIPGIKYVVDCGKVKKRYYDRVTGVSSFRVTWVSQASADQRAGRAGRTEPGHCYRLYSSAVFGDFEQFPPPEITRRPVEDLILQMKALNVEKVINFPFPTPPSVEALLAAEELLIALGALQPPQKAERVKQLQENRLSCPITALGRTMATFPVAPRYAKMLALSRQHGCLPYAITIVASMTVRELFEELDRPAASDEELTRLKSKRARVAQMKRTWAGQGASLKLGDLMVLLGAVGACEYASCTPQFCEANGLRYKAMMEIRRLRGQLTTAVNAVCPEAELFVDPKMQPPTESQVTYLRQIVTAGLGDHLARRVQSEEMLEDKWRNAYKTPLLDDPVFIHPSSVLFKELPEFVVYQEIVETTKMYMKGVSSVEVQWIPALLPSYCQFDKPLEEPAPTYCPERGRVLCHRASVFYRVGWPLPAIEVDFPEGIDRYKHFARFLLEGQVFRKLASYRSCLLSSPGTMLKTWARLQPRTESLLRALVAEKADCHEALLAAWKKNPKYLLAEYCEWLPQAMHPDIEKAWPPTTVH
Chain of UniProt Q9H2U1 (Q9H2U1 whole entry): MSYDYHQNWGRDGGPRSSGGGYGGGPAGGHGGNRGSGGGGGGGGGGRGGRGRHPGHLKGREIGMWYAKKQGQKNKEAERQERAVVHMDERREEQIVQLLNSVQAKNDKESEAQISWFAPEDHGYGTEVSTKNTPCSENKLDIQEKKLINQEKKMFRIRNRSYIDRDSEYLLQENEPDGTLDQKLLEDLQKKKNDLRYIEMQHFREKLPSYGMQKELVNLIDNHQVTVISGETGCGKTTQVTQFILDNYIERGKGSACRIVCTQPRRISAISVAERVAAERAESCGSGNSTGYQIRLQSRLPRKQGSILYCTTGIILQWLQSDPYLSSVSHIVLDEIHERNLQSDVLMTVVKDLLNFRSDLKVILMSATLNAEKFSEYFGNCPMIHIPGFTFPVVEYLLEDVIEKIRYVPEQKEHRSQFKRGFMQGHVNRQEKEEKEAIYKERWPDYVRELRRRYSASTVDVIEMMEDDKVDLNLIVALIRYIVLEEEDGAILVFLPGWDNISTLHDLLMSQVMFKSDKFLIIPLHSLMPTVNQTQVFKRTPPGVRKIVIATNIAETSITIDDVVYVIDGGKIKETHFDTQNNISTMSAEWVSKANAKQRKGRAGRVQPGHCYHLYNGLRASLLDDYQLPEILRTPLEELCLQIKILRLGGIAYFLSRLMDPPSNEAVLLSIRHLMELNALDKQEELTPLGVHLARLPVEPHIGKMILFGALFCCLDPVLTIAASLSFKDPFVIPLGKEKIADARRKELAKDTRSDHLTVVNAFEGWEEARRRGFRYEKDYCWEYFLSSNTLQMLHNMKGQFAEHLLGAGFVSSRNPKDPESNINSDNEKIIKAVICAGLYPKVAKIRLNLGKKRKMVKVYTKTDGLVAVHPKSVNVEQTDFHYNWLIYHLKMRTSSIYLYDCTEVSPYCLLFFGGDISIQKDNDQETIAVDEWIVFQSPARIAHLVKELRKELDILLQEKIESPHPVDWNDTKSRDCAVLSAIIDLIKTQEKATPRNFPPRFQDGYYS
Chain of UniProt Q68CQ4 (Q68CQ4 whole entry): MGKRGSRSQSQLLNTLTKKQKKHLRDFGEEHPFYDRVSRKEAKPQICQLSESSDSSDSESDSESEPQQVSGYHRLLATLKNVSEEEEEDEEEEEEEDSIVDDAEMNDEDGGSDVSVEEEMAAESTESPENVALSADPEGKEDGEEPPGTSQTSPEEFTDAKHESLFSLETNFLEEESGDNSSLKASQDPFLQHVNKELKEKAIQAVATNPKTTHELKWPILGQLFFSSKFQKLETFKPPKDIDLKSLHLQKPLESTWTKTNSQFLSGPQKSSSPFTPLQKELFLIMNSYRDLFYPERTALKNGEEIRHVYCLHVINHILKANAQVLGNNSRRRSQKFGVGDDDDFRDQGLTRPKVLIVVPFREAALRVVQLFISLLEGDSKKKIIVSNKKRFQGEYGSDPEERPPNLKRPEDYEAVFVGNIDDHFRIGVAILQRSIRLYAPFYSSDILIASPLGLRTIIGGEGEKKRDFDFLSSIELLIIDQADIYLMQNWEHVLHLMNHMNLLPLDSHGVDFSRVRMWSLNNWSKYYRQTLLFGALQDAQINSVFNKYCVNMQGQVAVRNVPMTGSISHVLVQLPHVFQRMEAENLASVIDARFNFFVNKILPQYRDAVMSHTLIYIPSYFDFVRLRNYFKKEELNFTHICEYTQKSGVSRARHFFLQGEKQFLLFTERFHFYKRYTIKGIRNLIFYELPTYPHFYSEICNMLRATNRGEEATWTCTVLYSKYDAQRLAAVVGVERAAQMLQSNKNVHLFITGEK

Target | thermal stability z-score (lipoamide; [1]) | thermal stability z-score (lipoamide; arsenate co-treatment: none) | thermal stability z-score (potassium arsenate)
DHRS13 (UniProt Q6UX07) | 0.049 | 0.274 | 0.0183
DHRSX (UniProt Q8N5I4) | 0.396 | 0.418 | -0.643
DHTKD1 (UniProt Q96HY7) | -0.237 | 0.0606 | -0.558
DHX8 (UniProt Q14562) | 0.819 | 0.167 | 0.449
DHX9 (UniProt Q08211) | 0.398 | 1.65 | -1.4
DHX15 (UniProt O43143) | -0.319 | -0.389 | 0.00808
DHX16 (UniProt O60231) | -0.223 | 0.345 | -1.81
DHX29 (UniProt Q7Z478) | 0.104 | 0.27 | 0.267
DHX30 (UniProt Q7L2E3) | -0.306 | 0.192 | -0.391
DHX32 (UniProt Q7L7V1) | -1.73 | -1.67 | 0.629
DHX34 (UniProt Q14147) | 0.0163 | -0.0341 | -0.164
DHX36 (UniProt Q9H2U1) | -0.0301 | -0.0965 | -0.0639
DHX37 (UniProt Q8IY37) | 0.321 | 0.303 | 0.359
DHX38 (UniProt Q92620) | -0.164 | 0.0335 | -0.406
DHX40 (UniProt Q8IX18) | 0.111 | 0.0273 | -0.0831
DHX57 (UniProt Q6P158) | -0.125 | -0.0979 | -0.286
DIABLO (UniProt Q9NR28) | 0.979 | 0.495 | 0.154
DIAPH1 (UniProt O60610) | 0.466 | 0.801 | -0.58
DIAPH3 (UniProt Q9NSV4) | -1.4 | -0.761 | -0.0767
DICER1 (UniProt Q9UPY3) | 0.656 | 0.00487 | -0.398
DIDO1 (UniProt Q9BTC0) | 0.835 | 0.516 | -1.37
DIEXF (UniProt Q68CQ4) | 0.1 | 0.0895 | 0.134
DIMT1 (UniProt Q9UNQ2) | 0.142 | 0.0753 | -0.418
DIP2A (UniProt Q14689) | 0.82 | -0.0406 | -0.205
DIP2B (UniProt Q9P265) | 0.206 | 0.147 | -0.222
DIS3 (UniProt Q9Y2L1) | -0.727 | -0.422 | -1.52
DIS3L2 (UniProt Q8IYB7) | -0.225 | 0.566 | 0.155
